Experimental data: patent publication US5770083A, “Separation of polar compounds by affinity countercurrent chromatography” (The United States of America as represented by the …, priority 1995, dated 1998)
Read-outs that look alike come from different tables or passages of the source.

Assays:
[1] = Partition coefficient (K) in two-phase solvent systems, test tube procedure; type: physicochemical
Protocol: Each solvent system was prepared by equilibrating the solvent mixture, excluding the ligand, in a separatory funnel at room temperature. After two clear layers were formed, the two phases were separated. Then, a desired amount of the ligand was added to the organic phase which was then used as the stationary phase. The aqueous phase was used as the mobile phase.
Partition coefficients were measured using the standard test tube procedure as follows: The two-phase solvent system was prepared as described above. An aliquot of 2 mL of each phase, a total of 4 mL, was delivered in a test tube (13 mm ID×100 mm length) where a desired amount of the ligand and 1-2 mg of sample were added. Then, the test tube was stoppered and the contents were mixed until the resolved sample was completely equilibrated between two phases. Using a vortex mixer, it required 10 successive applications at a few second intervals after the sample was dissolved in the solvent. The tube was stand still until clear two layers were formed. If necessary, the tubes were centrifuged for 2-3 min at 1000×g to accelerate the phase separation. An aliquot of each phase, usually 100 μl, was separately diluted with 2 mL of a suitable diluent, usually methanol, and the absorbance determined with a spectrophotometer, (Zeiss, Hanover, Md., USA) at a desired wavelength. The partition coefficient for each component was obtained by the absorbance of the upper phase divided by that of the lower phase. […]

[2] = n-butanol/water two-phase solvent systems, no ligand; stated as background; cited from earlier work
[3] = methyl t-butyl ether / 0.1 M KH2PO4 (1:1), ligand DEHPA 10%, upper/lower phase

Compound: Leu--Tyr
- Partition Coefficient (K) [1, 3]: 10

Compound: COc1cc(C(O)CN)ccc1O (stereo not shown) [Normetanephrine, normetanephrine]
- Partition Coefficient (K) [1]: 0.5

Compound: NCCc1ccc(O)cc1 [Tyramine, tyramine]
- Partition Coefficient (K) [1]: 1.7

Compound: CCCCC(CC)COP(=O)(O)OCC(CC)CCCC (stereo not shown) [DEHPA, di-(2-ethylhexyl)phosphoric acid]
- K value of the ligand ([1]; ligand almost unilaterally distributed into the organic phase, MBE/aqueous systems): > 100

Compound: N[C@@H](Cc1ccc(O)c(O)c1)C(=O)O (racemic) [DOPA, 3,4-dihydroxyphenylalanine]
- Partition Coefficient (K) [1]: 0.01
- K value (in words) ([1]; Dopa in zwitterionic form, pH-zone-refining run, Example 5): extremely low K value

Compound: Ala--Tyr
- Partition Coefficient (K) [1, 3]: 0.5

Compound: Val--Tyr
- Partition Coefficient (K) [1, 3]: 2.8

Compound: CNC[C@H](O)c1ccc(O)c(O)c1 [Epinephrine, epinephrine]
- partition (in words) [2]: almost exclusively into the aqueous phase
- Partition Coefficient (K) ([1]; methyl t-butyl ether / 0.1 M NH4OAc and 0.5 M HCl (1:1), ligand DEHPA 1.5%, upper/lower phase): 0.4
- Partition Coefficient ([1]; solvent system I: nButanol/H2O): 0.24
- Partition Coefficient ([1]; solvent system II: nButanol/0.1M NH4OAc): 0.13
- Partition Coefficient ([1]; solvent system III: MBE/H2O): 0.06
- Partition Coefficient ([1]; solvent system IV: MBE/0.1M NH4OAc): 0.16
- Partition Coefficient ([1]; solvent system V: MBE/DEHPA/0.1M NH4OAc (9:1:10)): 5.83
- Partition Coefficient ([1]; solvent system VI: MBE/DEHPA/0.05M HCl (9:1:10)): 0.01
- Partition Coefficient ([1]; solvent system VII: MBE/DEHPA/0.1M NH4OAc & 0.05M HCl (9:1:10)): 1.42

Compound: Tyr--Ala
- Partition Coefficient (K) [1, 3]: 0.8

Compound: Tyr--Gly
- Partition Coefficient (K) [1, 3]: 0.2

Compound: Tyr--Val
- Partition Coefficient (K) [1, 3]: 4.9

Compound: Tyr--Leu
- Partition Coefficient (K) [1, 3]: 18

Compound: Gly--Tyr
- Partition Coefficient (K) [1, 3]: 0.1
